The text below walks through data of ChEMBL document CHEMBL5137057, “Small Carbohydrate Derivatives as Potent Antibiofilm Agents” (J Med Chem, 2022).

Experiment [1] has as its target T1, PA-I galactophilic lectin (Pseudomonas aeruginosa (strain ATCC 15692 / PAO1 / 1C / PRS 101 / LMG12228), UniProt Q05097).
T1 sequence (Q05097 whole entry): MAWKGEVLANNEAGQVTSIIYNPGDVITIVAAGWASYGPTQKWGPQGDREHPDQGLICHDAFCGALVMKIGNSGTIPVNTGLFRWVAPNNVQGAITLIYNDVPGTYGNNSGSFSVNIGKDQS
Nature of the experiment: Inhibition of FITC-labelled Pseudomonas aeruginosa LecA.

Experiment [2] in a line: Antibiofilm activity against Pseudomonas aeruginosa PA14 cocultured with Staphylococcus aureus ATCC 6538 assessed as inhibition of biofilm formation incubated for 24 hrs by crystal violet staining based microtiter plate method relative to control. The experiment is classed as functional. More on the design: scale not given: the % may be the effect or the level left.
A short description of experiment [3]: Downregulation of c-di-GMP level in Pseudomonas aeruginosa PA14 planktonic cells harboring wspF gene mutation at 10 uM incubated for 24 hrs by HPLC method. The experiment is classed as functional.
The target in another experiment is Lectin A (Photorhabdus laumondii subsp. laumondii, UniProt Q7N561). Nature of the experiment: Inhibition of Photorhabdus luminescens LecA expressed in Escherichia coli BL21(DE3) cells by fluorescence based analysis.
Chain of Lectin A (Q7N561 whole entry): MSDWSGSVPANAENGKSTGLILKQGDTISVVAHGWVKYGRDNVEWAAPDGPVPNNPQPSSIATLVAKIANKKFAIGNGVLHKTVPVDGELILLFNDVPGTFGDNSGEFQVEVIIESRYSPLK
The test system of the next experiment is Pseudomonas aeruginosa. Kind of experiment: Downregulation of c-di-GMP level in Pseudomonas aeruginosa PA14 harboring wspF gene mutation biofilm at 10 uM incubated for 24 hrs by HPLC method. The format is functional.
Experiment [4] can be described thus: Binding affinity to Lactobacillus reuteri Glucosyltransferase assessed as dissociation constant by SPR analysis. More on the design: species or system Limosilactobacillus reuteri.
In experiment [5] the test system is Streptococcus mutans. Nature of the experiment: Prevention of Streptococcus mutans CLSM 001 adherence to sucrose-dependent glass surface at 1 to 2 mg/ml relative to control. The format is functional. As to conditions: dose 1-2 mg/ml.
Another experiment deals with Streptococcus suis. Nature of the experiment: Prevention of Streptococcus suis ATCC 700794 adherence to sucrose-dependent membrane surface at 78.1 ug/ml relative to control. The experiment is classed as functional. As to conditions: dose 78.1 µg/ml.
In experiment [6] the target is Sortase A (Streptococcus mutans, UniProt Q8CM62). Nature of the experiment: Inhibition of Streptococcus mutans ATCC 2517 Sortase A protease expressed in Escherichia coli BL21 expression system using Abz-LPATG-Dap(Dnp)-NH2 as substrate incubated for 1 hrs by FRET assay.
Chain of Sortase A (Streptococcus mutans, UniProt Q8CM62) (Q8CM62 whole entry): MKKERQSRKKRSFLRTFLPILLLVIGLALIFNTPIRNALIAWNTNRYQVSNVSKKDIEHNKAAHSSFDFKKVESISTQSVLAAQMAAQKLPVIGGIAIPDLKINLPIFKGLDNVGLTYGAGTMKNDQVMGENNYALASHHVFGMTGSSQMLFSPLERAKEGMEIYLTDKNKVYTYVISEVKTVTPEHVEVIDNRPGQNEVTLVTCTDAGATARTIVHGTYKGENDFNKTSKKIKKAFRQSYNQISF
The subject of experiment [7] is Streptococcus mutans. Nature of the experiment: Antibiofilm activity against Streptococcus mutans ATCC 2517 assessed as inhibition of biofilm formation at 128 ug/ml measured after 16 hrs by crystal violet staining based assay relative to control. The arrangement: scale not given: the % may be the effect or the level left. The format is functional. As to conditions: dose 128 µg/ml.

For experiment [8], the system named is Cutibacterium acnes. Nature of the experiment: Antibiofilm activity against Propionibacterium acnes LMG 16711 assessed as inhibition of biofilm formation at 0.01 % (w/v) incubated for 24 hrs by fluorescence based analysis. The experiment is classed as functional. The arrangement: scale not given: the % may be the effect or the level left.
For experiment [9], the system named is Cutibacterium acnes. Nature of the experiment: Antibiofilm activity against Propionibacterium acnes LMG 16711 assessed as inhibition of biofilm formation at 0.08 % (w/v) incubated for 24 hrs by fluorescence based analysis. The format is functional. The arrangement: scale not given: the % may be the effect or the level left.
For another experiment, the system named is Staphylococcus aureus. Kind of experiment: Prevention of Staphylococcus aureus ATCC 25904 adherence to fibrinogen at 64 ug/ml by crystal violet staining based analysis relative to control. The format is functional. As to conditions: dose 64 µg/ml.
For experiment [10], the target named is Sortase A (Staphylococcus aureus, UniProt Q9S446). Kind of experiment: Inhibition of Staphylococcus aureus ATCC 25904 Sortase A protease expressed in Escherichia coli BL21 expression system using Dabcyl-QALPETGEE-Edans as substrate incubated for 30 mins by FRET assay.
Chain of Sortase A (Staphylococcus aureus, UniProt Q9S446) (Q9S446 whole entry): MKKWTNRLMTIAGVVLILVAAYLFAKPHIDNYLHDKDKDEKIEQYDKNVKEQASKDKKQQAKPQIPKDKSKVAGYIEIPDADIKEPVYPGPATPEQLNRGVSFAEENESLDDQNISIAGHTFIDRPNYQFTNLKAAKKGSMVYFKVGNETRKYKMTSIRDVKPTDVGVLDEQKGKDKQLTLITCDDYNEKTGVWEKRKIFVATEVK
The target of experiment [11] is T1, PA-I galactophilic lectin. Kind of experiment: Inhibition of FITC-labelled Pseudomonas aeruginosa LecA incubated for 1 hr by fluorescence based analysis.
The test system of a further experiment is Escherichia coli. Nature of the experiment: Antibiofilm activity against Escherichia coli UTI89 at 5 ug/ml incubated for 72 hrs by crystal violet staining based assay relative to control. The format is functional. As to conditions: dose 5 µg/ml.

Compound `OC[C@H]1O[C@@H](OCCCc2cn(CCn3cc([C@@H]4O[C@H](CO)[C@@H](n5cc([C@@H]6O[C@H](CO)[C@@H](n7cc(CCCO[C@@H]8O[C@H](CO)[C@H](O)[C@H](O)[C@H]8O)nn7)[C@H](O)[C@H]6O)nn5)[C@H](O)[C@H]4O)nn3)nn2)[C@H](O)[C@@H](O)[C@H]1O` returned an IC50 in [1] of 220 nM.
Take `OC[C@H]1O[C@H](OC[C@H]2O[C@H](O[C@]3(CO)O[C@H](CO)[C@@H](O)[C@@H]3O)[C@H](O)[C@@H](O)[C@@H]2O)[C@H](O)[C@@H](O)[C@H]1O` [RAFFINOSE]: the Activity in [2] was 23%; in experiment [3] it was 47%; in the experiment on Pseudomonas aeruginosa, 59%. The compound also returned an IC50 at Lectin A of 110 µM.
With `C[C@H]1[C@H](Oc2ccc(/C=N/NC(=O)C3CCN(C(=O)OC(C)(C)C)CC3)cc2)O[C@H](CO)[C@@H](O)[C@@H]1O`, the Kd in experiment [4] was 1.6 mM.
In the case of `O=c1c(O[C@@H]2OC[C@H](O)[C@H](O)[C@H]2O)c(-c2ccc(O)c(O)c2)oc2cc(O)cc(O)c12` [GUAJAVERIN], the Activity in the experiment with Streptococcus mutans [5] came to 83.7%.
Compound `C[C@@H]1O[C@@H](OC[C@H]2O[C@@H](Oc3c(-c4ccc(O)c(O)c4)oc4cc(O)cc(O)c4c3=O)[C@H](O)[C@@H](O)[C@@H]2O)[C@H](O)[C@H](O)[C@H]1O` [RUTIN] gave an Activity in the experiment with Streptococcus suis of 20%.
`C[C@H]1O[C@@H](O[C@H]2C(=O)c3c(O)cc(O)cc3O[C@@H]2c2ccc(O)c(O)c2)[C@H](O)[C@H](O)[C@H]1O` showed a half-inhibitory concentration (IC50) on Sortase A [6] of 16.7 µM. In the experiment on Streptococcus mutans [7], the Activity came to 70%.
With `CC(C)=CCc1c(O[C@@H]2O[C@H](CO)[C@@H](O)[C@H](O)[C@H]2O)cc(O)c2c(=O)c(O[C@@H]3O[C@H](CO)[C@@H](O)[C@H](O)[C@H]3O)c(-c3ccc(O)c(O)c3)oc12`, the Activity in the experiment with Cutibacterium acnes [8] was determined as 40%; in the experiment with Cutibacterium acnes [9], 75%.
In the case of `C[C@H]1O[C@@H](Oc2c(-c3ccc(O)c(O)c3)oc3cc(O)cc(O)c3c2=O)[C@H](O)[C@H](O)[C@H]1O`, the Activity with Staphylococcus aureus came to 51.9%. Also, half-maximal inhibition at Sortase A [10] (IC50) was put at 71.4 µM.
Regarding `OC[C@H]1O[C@@H](OCc2cn([C@H]3[C@H](O)[C@@H](O)[C@H](c4cn([C@H]5[C@H](O)[C@@H](O)[C@H](n6cc([C@@H]7O[C@H](CO)[C@@H](n8cc(CO[C@@H]9O[C@H](CO)[C@H](O)[C@H](O)[C@H]9O)nn8)[C@H](O)[C@H]7O)nn6)O[C@@H]5CO)nn4)O[C@@H]3CO)nn2)[C@H](O)[C@@H](O)[C@H]1O`, in experiment [11], half-maximal inhibition (IC50) required 28 nM.
In the experiment on Escherichia coli, `C[C@@H]1O[C@@H](O[C@@H]2[C@@H](O)[C@H](OCCc3ccc(O)c(O)c3)O[C@H](CO)[C@H]2OC(=O)/C=C/c2ccc(O)c(O)c2)[C@H](O)[C@H](O)[C@H]1O` [ACETOSIDE] registered an Activity of 60%.

The IC50 is the concentration at which inhibition is half-maximal. One may read the Kd as the equilibrium constant for the complex coming apart.
